Laboratory results published in ChEMBL document CHEMBL3045684, “Compatibility of traditional and novel acaricides with bumblebees (Bombus terrestris): a first laboratory assessment of toxicity and sublethal effects” (Pest Manag Sci, 2010).
Activity calls are given as the source filed them. The rule behind the calls is not given here.

Assays:
Bombus terrestris [1] = experiment: Toxicity against worker Bombus terrestris (bumblebee) assessed as reduction in reproduction at 200 mg a.i./l, po administered through pollen for 11 weeks measured once a week for 11 weeks; type: functional; parameters: scale not given: the % may be the effect or the level left
Bombus terrestris [2] = experiment: Toxicity against worker Bombus terrestris (bumblebee) assessed as mortality at 200 mg a.i./l, po administered through pollen for 11 weeks measured everyday for 3 days followed by once a week for 11 weeks; type: functional
Bombus terrestris [3] = experiment: Toxicity against worker Bombus terrestris (bumblebee) assessed as mortality at 200 mg a.i./l, po administered through sugar water for 11 weeks measured everyday for 3 days followed by once a week for 11 weeks; type: functional
Bombus terrestris [4] = experiment: Contact toxicity against worker Bombus terrestris (bumblebee) assessed as reduction in reproduction at 200 mg a.i./l applied on the dorsal thorax for 11 weeks measured once a week for 11 weeks relative to control; type: functional, organism-based
Bombus terrestris [5] = experiment: Contact toxicity against worker Bombus terrestris (bumblebee) assessed as mortality at 200 mg a.i./l applied on the dorsal thorax for 11 weeks measured everyday for 3 days followed by once a week for 11 weeks; type: functional
Apis mellifera = experiment: Contact toxicity against Apis mellifera (honey bee) assessed per bee; type: functional
Bombus terrestris [6] = experiment: Contact toxicity against Bombus terrestris (bumblebee) assessed per bee; type: functional
Bombus terrestris [7] = experiment: Toxicity against worker Bombus terrestris (bumblebee) assessed as mortality at 10 mg a.i./l, po administered through sugar water for 11 weeks measured everyday for 3 days followed by once a week for 11 weeks; type: functional
Bombus terrestris [8] = experiment: Contact toxicity against worker Bombus terrestris (bumblebee) assessed as mortality at 10 mg a.i./l applied on the dorsal thorax for 11 weeks measured everyday for 3 days followed by once a week for 11 weeks; type: functional
Bombus terrestris [9] = experiment: Toxicity against worker Bombus terrestris (bumblebee) assessed as mortality at 10 mg a.i./l, po administered through pollen for 11 weeks measured everyday for 3 days followed by once a week for 11 weeks; type: functional, organism-based
Bombus terrestris [10] = experiment: Contact toxicity against worker Bombus terrestris (bumblebee) assessed as reduction in reproduction at 10 mg a.i./l applied on the dorsal thorax for 11 weeks measured once a week for 11 weeks relative to control; type: functional, organism-based
Bombus terrestris [11] = experiment: Contact toxicity against worker Bombus terrestris (bumblebee) assessed as mortality at 75 mg a.i./l applied on the dorsal thorax for 11 weeks measured everyday for 3 days followed by once a week for 11 weeks; type: functional
Bombus terrestris [12] = experiment: Toxicity against worker Bombus terrestris (bumblebee) assessed as reduction in reproduction at 75 mg a.i./l, po administered through pollen for 11 weeks measured once a week for 11 weeks; type: functional, organism-based
Bombus terrestris [13] = experiment: Contact toxicity against worker Bombus terrestris (bumblebee) assessed as reduction in reproduction at 75 mg a.i./l applied on the dorsal thorax for 11 weeks measured once a week for 11 weeks relative to control; type: functional, organism-based
Bombus terrestris [14] = experiment: Toxicity against worker Bombus terrestris (bumblebee) assessed as reduction in reproduction at 75 mg a.i./l, po administered through sugar water for 11 weeks measured once a week for 11 weeks relative to control; type: functional, organism-based
Bombus terrestris [15] = experiment: Toxicity against worker Bombus terrestris (bumblebee) assessed as mortality at 75 mg a.i./l, po administered through sugar water measured after 9 to 11 weeks; type: functional, organism-based
Bombus terrestris [16] = experiment: Contact toxicity against worker Bombus terrestris (bumblebee) assessed as mortality at 75 mg a.i./l applied on the dorsal thorax measured up to 1 week; type: functional, organism-based
Bombus terrestris [17] = experiment: Toxicity against worker Bombus terrestris (bumblebee) assessed as mortality at 75 mg a.i./l, po administered through pollen for 11 weeks measured everyday for 3 days followed by once a week for 11 weeks; type: functional
Bombus terrestris [18] = experiment: Toxicity against worker Bombus terrestris (bumblebee) assessed as mortality at 75 mg a.i./l, po administered through sugar water for 11 weeks measured everyday for 3 days followed by once a week for 11 weeks; type: functional
Bombus terrestris [19] = experiment: Contact toxicity against worker Bombus terrestris (bumblebee) assessed as reduction in reproduction at 96 mg a.i./l applied on the dorsal thorax for 11 weeks measured once a week for 11 weeks relative to control; type: functional, organism-based
Bombus terrestris [20] = experiment: Toxicity against worker Bombus terrestris (bumblebee) assessed as mortality at 96 mg a.i./l, po administered through sugar water for 11 weeks measured everyday for 3 days followed by once a week for 11 weeks; type: functional
Bombus terrestris [21] = experiment: Toxicity against worker Bombus terrestris (bumblebee) assessed as mortality at 96 mg a.i./l, po administered through pollen for 11 weeks measured everyday for 3 days followed by once a week for 11 weeks; type: functional, organism-based
Bombus terrestris [22] = experiment: Toxicity against worker Bombus terrestris (bumblebee) assessed as reduction in reproduction at 96 mg a.i./l, po administered through sugar water for 11 weeks measured once a week for 11 weeks relative to control; type: functional, organism-based
Bombus terrestris [23] = experiment: Contact toxicity against worker Bombus terrestris (bumblebee) assessed as mortality at 96 mg a.i./l applied on the dorsal thorax for 11 weeks measured everyday for 3 days followed by once a week for 11 weeks; type: functional
Bombus terrestris [24] = experiment: Toxicity against worker Bombus terrestris (bumblebee) assessed as reduction in reproduction at 96 mg a.i./l, po administered through pollen for 11 weeks measured once a week for 11 weeks; type: functional, organism-based
Bombus terrestris [25] = experiment: Toxicity against worker Bombus terrestris (bumblebee) assessed as mortality at 0.8 mg a.i./l, po administered through pollen for 11 weeks measured everyday for 3 days followed by once a week for 11 weeks; type: functional, organism-based
Bombus terrestris [26] = experiment: Toxicity against worker Bombus terrestris (bumblebee) assessed as reduction in reproduction at 0.8 mg a.i./l, po administered through sugar water for 11 weeks measured once a week for 11 weeks relative to control; type: functional, organism-based
Bombus terrestris [27] = experiment: Toxicity against worker Bombus terrestris (bumblebee) assessed as reduction in reproduction at 0.8 mg a.i./l, po administered through pollen for 11 weeks measured once a week for 11 weeks; type: functional, organism-based
Bombus terrestris [28] = experiment: Contact toxicity against worker Bombus terrestris (bumblebee) assessed as reduction in reproduction at 0.8 mg a.i./l applied on the dorsal thorax for 11 weeks measured once a week for 11 weeks relative to control; type: functional, organism-based
Bombus terrestris [29] = experiment: Contact toxicity against worker Bombus terrestris (bumblebee) assessed as mortality at 0.8 mg a.i./l applied on the dorsal thorax for 11 weeks measured everyday for 3 days followed by once a week for 11 weeks; type: functional
Bombus terrestris [30] = experiment: Toxicity against worker Bombus terrestris (bumblebee) assessed as mortality at 0.8 mg a.i./l, po administered through sugar water for 11 weeks measured everyday for 3 days followed by once a week for 11 weeks; type: functional
Bombus terrestris [31] = experiment: Toxicity against worker Bombus terrestris (bumblebee) assessed as reduction in reproduction at 200 mg a.i./l, po administered through sugar water for 11 weeks measured once a week for 11 weeks relative to control; type: functional, organism-based
Bombus terrestris [32] = experiment: Toxicity against worker Bombus terrestris (bumblebee) assessed as reduction in reproduction at 100 mg a.i./l, po administered through pollen for 11 weeks measured once a week for 11 weeks; type: functional; parameters: scale not given: the % may be the effect or the level left
Bombus terrestris [33] = experiment: Toxicity against worker Bombus terrestris (bumblebee) assessed as reduction in reproduction at 10 mg a.i./l, po administered through sugar water for 11 weeks measured once a week for 11 weeks relative to control; type: functional, organism-based
Bombus terrestris [34] = experiment: Contact toxicity against worker Bombus terrestris (bumblebee) assessed as mortality at 100 mg a.i./l applied on the dorsal thorax for 11 weeks measured everyday for 3 days followed by once a week for 11 weeks; type: functional
Bombus terrestris [35] = experiment: Toxicity against worker Bombus terrestris (bumblebee) assessed as reduction in reproduction at 10 mg a.i./l, po administered through pollen for 11 weeks measured once a week for 11 weeks; type: functional; parameters: scale not given: the % may be the effect or the level left
Bombus terrestris [36] = experiment: Toxicity against worker Bombus terrestris (bumblebee) assessed as mortality at 100 mg a.i./l, po administered through sugar water for 11 weeks measured everyday for 3 days followed by once a week for 11 weeks; type: functional
Bombus terrestris [37] = experiment: Toxicity against worker Bombus terrestris (bumblebee) assessed as reduction in reproduction at 100 mg a.i./l, po administered through sugar water for 11 weeks measured once a week for 11 weeks relative to control; type: functional, organism-based
Bombus terrestris [38] = experiment: Contact toxicity against worker Bombus terrestris (bumblebee) assessed as reduction in reproduction at 100 mg a.i./l applied on the dorsal thorax for 11 weeks measured once a week for 11 weeks relative to control; type: functional, organism-based
Bombus terrestris [39] = experiment: Toxicity against worker Bombus terrestris (bumblebee) assessed as mortality at 100 mg a.i./l, po administered through pollen for 11 weeks measured everyday for 3 days followed by once a week for 11 weeks; type: functional

SMILES: CC(C)(C)c1ccc(CCOc2ncnc3ccccc23)cc1 [FENAZAQUIN]
- Activity (Bombus terrestris [1]): 50%
- mortality at 200 µg/mL (Bombus terrestris [2]): 90%
- mortality at 200 µg/mL (Bombus terrestris [3]): 25%
- Activity (Bombus terrestris [4]): inactive
- mortality at 200 µg/mL (Bombus terrestris [5]): < 25%
- LD50 (Apis mellifera): <1 µg
- LD50 (Bombus terrestris [6]): >100 µg

SMILES: C/C1=C\C[C@@H]2C[C@@H](C[C@]3(CC[C@H](C)[C@@H](C)O3)O2)OC(=O)[C@@H]2CC[C@@H](O)[C@H]3OC/C(=C\C=C\[C@H](C)C1)[C@]32O [MILBEMECTIN]
- mortality at 10 µg/mL (Bombus terrestris [7]): < 25%
- mortality at 10 µg/mL (Bombus terrestris [8]): < 25%
- Activity (Bombus terrestris [9]): inactive
- LD50 (Apis mellifera): <1 µg
- Activity (Bombus terrestris [10]): inactive
- LD50 (Bombus terrestris [6]): >100 µg

SMILES: CC(C)(C)c1ccc(CSc2cnn(C(C)(C)C)c(=O)c2Cl)cc1 [PYRIDABEN]
- mortality at 75 µg/mL (Bombus terrestris [11]): 50%
- Activity (Bombus terrestris [12]): Active
- Activity (Bombus terrestris [13]): inactive
- Activity (Bombus terrestris [14]): Active
- Activity (Bombus terrestris [15]): Active
- Activity (Bombus terrestris [16]): Active
- mortality at 75 µg/mL (Bombus terrestris [17]): 90%
- mortality at 75 µg/mL (Bombus terrestris [18]): 95%

SMILES: CCC(C)(C)C(=O)OC1=C(c2ccc(Cl)cc2Cl)C(=O)OC12CCCCC2 [SPIRODICLOFEN]
- Activity (Bombus terrestris [19]): inactive
- mortality at 96 µg/mL (Bombus terrestris [20]): < 25%
- Activity (Bombus terrestris [21]): inactive
- Activity (Bombus terrestris [22]): Active
- mortality at 96 µg/mL (Bombus terrestris [23]): < 25%
- Activity (Bombus terrestris [24]): Active

SMILES: Cc1cc(C)c(C2=C(OC(=O)CC(C)(C)C)C3(CCCC3)OC2=O)c(C)c1 [SPIROMESIFEN]
- Activity (Bombus terrestris [25]): inactive
- Activity (Bombus terrestris [26]): Active
- Activity (Bombus terrestris [27]): Active
- Activity (Bombus terrestris [28]): inactive
- mortality at 0.8 µg/mL (Bombus terrestris [29]): < 25%
- mortality at 0.8 µg/mL (Bombus terrestris [30]): < 25%

SMILES: CCc1nn(C)c(C(=O)NCc2ccc(C(C)(C)C)cc2)c1Cl [TEBUFENPYRAD]
- Activity (Bombus terrestris [1]): 50%
- mortality at 10 µg/mL (Bombus terrestris [7]): 50%
- Activity (Bombus terrestris [31]): Active
- mortality at 10 µg/mL (Bombus terrestris [8]): < 25%
- mortality at 200 µg/mL (Bombus terrestris [2]): 90%
- mortality at 200 µg/mL (Bombus terrestris [3]): 50%
- Activity (Bombus terrestris [9]): inactive
- Activity (Bombus terrestris [4]): inactive
- Activity (Bombus terrestris [32]): 50%
- mortality at 200 µg/mL (Bombus terrestris [5]): < 25%
- Activity (Bombus terrestris [33]): Active
- mortality at 100 µg/mL (Bombus terrestris [34]): < 25%
- Activity (Bombus terrestris [35]): 50%
- Activity (Bombus terrestris [10]): inactive
- mortality at 100 µg/mL (Bombus terrestris [36]): 50%
- Activity (Bombus terrestris [37]): Active
- Activity (Bombus terrestris [38]): inactive
- mortality at 100 µg/mL (Bombus terrestris [39]): 90%
